Measured values taken from patent US20160213633A1, “METHOD OF INDUCING ANTI-GLATIRAMER ACETATE ANTIBODY RESPONSE” (Teva Pharmaceutical Industries, Ltd., priority 2015, published 2016).
Read-outs that look alike come from different tables or passages of the source.

What was measured:
anti-GA IgG antibodies = tested on: anti-GA IgG antibodies
Procedure: Sample positivity of each screen positive sample of each patient was confirmed in further testing by comparison to the confirmatory cut-point.
Unspiked and spiked samples were tested according to the method but only in 1/500 dilution.
The confirmatory cut-point factor is calculated to set the false positive rate at 1%. Reported value (RV) were the unspiked sample avg. ODA and the spiked sample avg. OD. RV were obtained from 50 naïve individuals, each measured 4 times over 2 days by 2 analysts.
Percent RA inhibition was calculated according to the following equation:
Percent inhibition=100×(1−(RA of spiked)/(RA of unspiked))

[1] = tested on: anti-GA specific IgG antibodies; settings: for average anti-GA IgG response (Screening RA %): GA treatment group, 40 mg sc three times a week, 1/500 dilution
Procedure: The screening results of the 1/500 dilution are presented as RA %.
Analysis was performed using ELISA.
Each plate should include the following samples: • System suitability Test (SST)—wells coated with purified human IgG. • SST Blank—wells coated with the blocking buffer only (w/o hIgG and human serum sample). […] To be subtracted from the NHS & PHS controls and from the human tested serum samples. • Sample 1-Sample 13—different tested serum samples. Each sample applied in two dilutions ( 1/500 and 1/1000)
All tested human serum samples of different time points from the same individual should be tested (in triplicates), if possible, in the same plate to allow comparison.
Prepare a 1.0 ug/ml dilution of hIgG coating antibody and coat the plate at 100 ul/well.
For washing, empty plate and tap out residual liquid, fill each well with 300 ul washing buffer and then invert plate to empty, tap out residual liquid onto paper towel.
For blocking, add 300 ul/well of blocking buffer to each well, seal the plate and incubate at room temperature for 1 hour, and wash the plates three times.
For sample loading, add 100 ul diluted test samples and/or control sample and/or sample buffer to each well. Seal the plate and incubate for 2 hours at room temperature, empty plate, tap out residual liquid and wash three times.
For detection antibody, prepare 1:4000 dilution of the biotinylated anti-hIgG detection antibody by diluting 2.5 ul biotinylated anti-hIgG antibody to 10 ml of blocking buffer. Prepare 10 ml biotinylated anti-human IgG detection antibody solution per plate and add 100 ul of the prepared detection antibodies to each well. Seal the plate and incubate for 1 hour at room temperature. Then empty plate, tap out residual liquid and wash five times.
For streptavidin conjugated horseradish peroxidase (HRP), prepare working dilution of the streptavidin conjugated HRP in blocking buffer. Then add 100 ul/well of the prepared streptavidin conjugated HRP solution, following shaking the plate for a few seconds. Then incubate the plate for 1 hour at room temperature in the dark, following washing five times.
For enzymatic reaction, TMB (3,3,5,5-tetramethylbenzidine peroxidase) is used. Mix equal volumes of TMB Peroxidase Substrate (Part 1) and Peroxidase Substrate Solution B in a clean glass container immediately prior to use. Dispense 100 ul of TMB solution into each well and incubate the plate for 15-30 minutes in the dark at 37° C. Stop the reaction with 100 ul stop solution per well (1N sulphuric acid) and shake the plate for a few seconds. Read the absorbance (ABS) of each well at 450 nm.
For blank subtraction, subtract the calculated average absorbance (ABS) of SST blank from average (AVG) ABS value of the SST. Subtract the calculated AVG ABS of blank from AVG ABS value of each test sample including PHS and NHS control samples. All data points that fall below 0.000 are set equal to 0.000.
To overcome plate-to-plate variability, the results are normalized by dividing the absorbance (ABS) of each test sample (including the controls) with that of the SST. This value is the Relative Absorbance (RA) ratio and is multiplied by 100 expressed in percent. These values are the reported response values of the test. The RA value is calculated according to the following equation: […]
The RA values of the normal human serum samples obtained from untreated individuals are used to calculate a cut-point value of the test. The cut-point value is used to distinguish between negative and positive human serum samples. In case that the calculated cut point value of the study is lower than the RA of the detection limit (2*Blank) of the study, the cut point is calculated as follows: […]
The results of the other dilution ( 1/1000) will be reported for monitoring, to allow semi quantitative comparison of the tested serum defined as positive.
All samples of each patient were tested on the same plate, whenever it was possible.

## L-glutamic acid polymer with L-alanine, L-lysine and L-tyrosine, acetate (salt) [GA]
anti-GA IgG antibodies; Baseline visit; one line per patient
  Inhibition (%): 68.2%
anti-GA IgG antibodies; Baseline; confirmation test, spiking with GA; each line one patient
  Inhibition (%): 65.5%
anti-GA IgG antibodies; Month 1; confirmation test
  Inhibition (%): 63.8%
anti-GA IgG antibodies; Month 1; individual patient
  Confirmed Positivity (Yes/No): YES
anti-GA IgG antibodies; Month 1 visit, individual patient
  Inhibition (%): 18.7%
anti-GA IgG antibodies; Month 1 visit; individual patient
  Inhibition (%): 63.2%
anti-GA IgG antibodies; Month 3; individual patient
  Confirmed Positivity (Yes/No): YES
anti-GA IgG antibodies; Month 3 visit, individual patient
  Inhibition (%): 47.0%
anti-GA IgG antibodies; Month 6; confirmation test
  Inhibition (%): 61.1%
anti-GA IgG antibodies; Month 6; individual patient
  Confirmed Positivity (Yes/No): YES
anti-GA IgG antibodies; Month 6 visit, individual patient
  Confirmed Positivity (Yes/No): YES
anti-GA IgG antibodies; Month 9; confirmation test
  Inhibition (%): 56.8%
anti-GA IgG antibodies; Month 9; individual patient
  Confirmed Positivity (Yes/No): YES
anti-GA IgG antibodies; Month 9 visit, individual patient
  Confirmed Positivity (Yes/No): YES
anti-GA IgG antibodies; Month 12; confirmation test
  Inhibition (%): 58.5%
anti-GA IgG antibodies; Month 12; individual patient
  Confirmed Positivity (Yes/No): YES
anti-GA IgG antibodies; Month 12 visit, individual patient
  Confirmed Positivity (Yes/No): YES
anti-GA IgG antibodies; Month 18; confirmation test
  Inhibition (%): 60.2%
anti-GA IgG antibodies; Month 18; individual patient
  Confirmed Positivity (Yes/No): YES
anti-GA IgG antibodies; Month 18 visit, individual patient
  Confirmed Positivity (Yes/No): YES
anti-GA IgG antibodies; Month 24; confirmation test
  Inhibition (%): 66.8%
anti-GA IgG antibodies; Month 24; confirmation test; individual patient
  Inhibition (%): 66.7%
anti-GA IgG antibodies; Month 24; individual patient
  Confirmed Positivity (Yes/No): YES
anti-GA IgG antibodies; Month 24 visit, individual patient
  Confirmed Positivity (Yes/No): YES
anti-GA IgG antibodies; confirmation test, individual patient, Month 1
  Inhibition (%): 63.3%
anti-GA IgG antibodies; confirmation test, individual patient, Month 18
  Inhibition (%): 59.5%
anti-GA IgG antibodies; confirmation test, individual patient, Month 24
  Inhibition (%): 58.2%
anti-GA IgG antibodies; every tested patient (262 patients)
  presence of anti-GA IgG Abs in tested patients: confirmed positive
anti-GA IgG antibodies; screen positive non-baseline samples; confirmatory cut-point […]
  positivity of non-baseline samples verified in the confirmatory test: 99.9%
[1]; Baseline visit, RA % vs cut-point 1.4, one line per patient
  Sample Positivity: Negative
[1]; Baseline, cut-point RA % of 1.4, individual patient
  Sample Positivity: Negative
[1]; Baseline
  average anti-GA IgG response (Screening RA %): 0.4568 RA %
[1]; Month 1
  average anti-GA IgG response (Screening RA %): 34.75 RA %
[1]; Month 3
  average anti-GA IgG response (Screening RA %): 67.72 RA %
[1]; Month 6
  average anti-GA IgG response (Screening RA %): 39.69 RA %
[1]; Month 9
  average anti-GA IgG response (Screening RA %): 30.61 RA %
[1]; Month 12
  average anti-GA IgG response (Screening RA %): 28.94 RA %
[1]; Month 18
  average anti-GA IgG response (Screening RA %): 24.9 RA %
[1]; Month 24
  average anti-GA IgG response (Screening RA %): 23.36 RA %
[1]; Month 1, RA % vs cut-point 1.4, one line per patient
  Sample Positivity: POSITIVE
[1]; Month 2 (so in the source), RA % vs cut-point 1.4, patient 537414
  Sample Positivity: POSITIVE
[1]; Month 3, RA % vs cut-point 1.4, one line per patient
  Sample Positivity: POSITIVE
[1]; Month 3, cut-point RA % of 1.4, individual patient
  Sample Positivity: POSITIVE
[1]; Month 6, RA % vs cut-point 1.4, one line per patient
  Sample Positivity: POSITIVE
[1]; Month 6, cut-point RA % of 1.4, individual patient
  Sample Positivity: POSITIVE
[1]; Month 12, RA % vs cut-point 1.4, one line per patient
  Sample Positivity: POSITIVE
[1]; about 12 months after the initial 40 mg/ml dose
  antibody level versus baseline: higher than baseline
[1]; by month 6 of the treatment
  total anti-GA IgG levels: decreased
[1]; first month compared to after the first month to the third month
  rate of increase of antibody level: greater rate during the first month
[1]; human, in vivo
  non-baseline samples higher than the cut-point value (RA % of 1.4): 96.2%
[1]; month 24
  antibody level after the peak versus baseline: did not reach the baseline level
